The record followed here is patent US5883121A, “Epoxysuccinamide derivative or salt thereof, and medicine comprising the same” (Taiho Pharmaceutical Co., Ltd., priority 1995, dated 1999).

Where a name gives a salt, the structure may show the parent alone.

One assay has as its target T1, cathepsin L (Rattus norvegicus, UniProt P07154).
T1 construct: extracted from a rat liver and completely purified; from tissue; host or cells: rat liver
The assay is described as follows: Determination of inhibition rate against cathepsin L. In kind it is biochemical. To be noted: for IC50: cathepsin L from rat liver, substrate Z-Phe-Arg-MCA, pH 5.5, 30° C, 10 minutes; for B/L: IC50 against cathepsin B divided by IC50 against cathepsin L. The protocol:
(§1) Determination of inhibition rate against cathepsin L, B and H […]
(§2) Each cathepsin was diluted with a diluent (0.1% Brij 35) to adjust its concentration to 0.3 U (0.1 U: a concentration at which 1.0 nmol of MCA is released per minute at 37° C.). To 500 μl of this solution, were added 250 μl of an activator/buffer (340 mM sodium acetate, 60 mM acetic acid, 4 mM disodium EDTA; pH 5.5). After the mixture was incubated for 1 minute at 30° C., the sample solution of the predetermined concentration and […] of a substrate solution were added to conduct a reaction for 10 minutes.

The target of the next assay is T2, cathepsin B (Rattus norvegicus, UniProt P00787).
T2 construct: extracted from a rat liver and completely purified; from tissue; host or cells: rat liver
The assay is described as follows: Determination of inhibition rate against cathepsin B. Type of assay: biochemical. The conditions noted are these: cathepsin B from rat liver; substrate Z-Arg-Arg-MCA; pH 5.5; 30° C; 10 minutes. The protocol: as §1, §2

T1 sequence (P07154 114-288 limits assumed): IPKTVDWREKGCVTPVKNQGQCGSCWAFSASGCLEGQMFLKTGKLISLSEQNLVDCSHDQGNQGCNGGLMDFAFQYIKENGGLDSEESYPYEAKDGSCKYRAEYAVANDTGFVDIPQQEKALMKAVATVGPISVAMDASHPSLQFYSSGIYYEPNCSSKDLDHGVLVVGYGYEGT
T1 sequence (P07154 291-334 limits assumed): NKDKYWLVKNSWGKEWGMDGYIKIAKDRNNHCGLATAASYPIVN
T2 sequence (P00787 129-333 limits assumed): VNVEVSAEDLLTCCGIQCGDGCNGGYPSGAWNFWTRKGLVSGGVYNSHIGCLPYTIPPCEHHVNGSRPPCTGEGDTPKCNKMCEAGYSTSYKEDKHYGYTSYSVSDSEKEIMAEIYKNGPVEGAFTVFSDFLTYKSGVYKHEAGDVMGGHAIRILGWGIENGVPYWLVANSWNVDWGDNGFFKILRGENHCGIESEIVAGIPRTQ
T2 sequence (P00787 80-126 limits assumed): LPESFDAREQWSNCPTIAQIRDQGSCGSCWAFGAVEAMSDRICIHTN

In the case of `NCCCC[C@H](NC(=O)[C@H]1O[C@@H]1C(=O)NCCc1ccccc1)C(=O)NC1c2ccccc2-c2ccccc21` [Example 6, Nα-[L-3-trans-(2-phenylethylcarbamoyl)oxirane-2-carbonyl]-L-lysine-9-fluorenylamide hydrochloride], the IC50 at cathepsin L came out at 960 nM.

Take `NCCCC[C@H](NC(=O)[C@H]1O[C@@H]1C(=O)NC1Cc2ccccc2C1)C(=O)NC1c2ccccc2-c2ccccc21` [Example 10, Nα-[L-3-trans-(2-indanylcarbamoyl)oxirane-2-carbonyl]-L-lysine-9-fluorenylamide hydrochloride]: the IC50 against cathepsin L amounted to 870 nM.

In the case of `NCCCC[C@H](NC(=O)[C@H]1O[C@@H]1C(=O)NC1Cc2ccccc2C1)C(=O)Nc1cccc2ccccc12` [Example 12, Nα-[L-3-trans-(2-indanylcarbamoyl)oxirane-2-carbonyl]-L-lysine-1-naphthylamide hydrochloride], on cathepsin L, the B/L is on record as greater than 250 and the midpoint of inhibition, the IC50, lay at 40 nM. This compound also displayed an IC50 against cathepsin B greater than 10000 nM.

On cathepsin L, `NCCCC[C@H](NC(=O)[C@H]1O[C@@H]1C(=O)N[C@@H](Cc1ccccc1)C(N)=O)C(=O)N(Cc1ccccc1)Cc1ccccc1` [Example 16, Nα-{L-3-trans-[(S)-1-carbamoyl-2-phenylethylcarbamoyl]oxirane-2-carbonyl}-L-lysine dibenzylamide hydrochloride] gave an IC50 of 220 nM.

For the compound `NCCCC[C@H](NC(=O)[C@H]1O[C@@H]1C(=O)N[C@@H](Cc1ccccc1)C(=O)NCCc1ccccc1)C(=O)Nc1cccc2ccccc12` [Example 24, Nα-{L-3-trans-[(S)-1-(2-phenylethylcarbamoyl)-2-phenylethylcarbamoyl]oxirane-2-carbonyl}-L-lysine-1-naphthylamide hydrochloride], at cathepsin L, the B/L stood at 70000 and the IC50 stood at 0.03 nM. The compound also registered an IC50 at cathepsin B of 2100 nM.

In turn, `CC(=O)NCCCC[C@H](NC(=O)[C@H]1O[C@@H]1C(=O)N[C@@H](Cc1ccccc1)C(N)=O)C(=O)Nc1cccc2ccccc12` [Example 31, Nα-{L-3-trans-[(S)-1-carbamoyl-2-phenylethylcarbamoyl]oxirane-2-carbonyl)-Nε-acetyl-L-lysine-1-naphthylamide] showed an IC50 on cathepsin L of 7 nM.

Consider `NCCCC[C@H](NC(=O)[C@H]1O[C@@H]1C(=O)N[C@@H](Cc1ccccc1)C(=O)NCCc1ccccc1)C(=O)Nc1ccccc1` [Example 35, Nα-{L-3-trans-[(S)-1-(2-phenylethylcarbamoyl)-2-phenylethylcarbamoyl]oxirane-2-carbonyl}-L-lysine anilide hydrochloride], for which, at cathepsin L, the B/L worked out at 6470 and half-maximal inhibition (IC50) required 1.7 nM. At cathepsin B, this compound displayed an IC50 of 11000 nM.

Consider `COc1ccccc1NC(=O)[C@H](CCCCN)NC(=O)[C@H]1O[C@@H]1C(=O)N[C@@H](Cc1ccccc1)C(N)=O` [Example 37, Nα-{L-3-trans-[(S)-1-carbamoyl-2-phenylethylcarbamoyl]oxirane-2-carbonyl}-L-lysine-2-methoxyanilide hydrochloride], for which, on cathepsin L, the B/L is recorded as 3906 and half-maximal inhibition (IC50) required 6.4 nM. This compound also had an IC50 at cathepsin B of 25000 nM.

At cathepsin L, `COc1ccccc1NC(=O)[C@H](CCCCN)NC(=O)[C@H]1O[C@@H]1C(=O)N[C@@H](Cc1ccccc1)C(=O)NCCc1ccccc1` [Example 39, Nα-{L-3-trans-[(S)-1-(2-phenylethylcarbamoyl)-2-phenylethylcarbamoyl]oxirane-2-carbonyl}-L-lysine-2-methoxyanilide hydrochloride] came in with a B/L of 7500 and an IC50 of 1.6 nM. This compound yielded an IC50 on cathepsin B of 12000 nM.

Take `NCCCC[C@H](NC(=O)[C@H]1O[C@@H]1C(=O)N[C@@H](Cc1ccccc1)C(=O)NCCc1ccccc1)C(=O)Nc1ccccc1C(F)(F)F` [Example 43, Nα-{L-3-trans-[(S)-1-(2-phenylethylcarbamoyl)-2-phenylethylcarbamoyl]oxirane-2-carbonyl)-L-lysine-2-trifluoromethylanilide hydrochloride]: at cathepsin L, the B/L came to 30000 and half-maximal inhibition (IC50) required 3 nM. This compound had an IC50 at cathepsin B of 90000 nM.

In turn, `NCCCC[C@H](NC(=O)[C@H]1O[C@@H]1C(=O)N[C@@H](Cc1ccccc1)C(N)=O)C(=O)N1CCc2ccccc21` [Example 45, Nα-{L-3-trans-[(S)-1-carbamoyl-2-phenylethylcarbamoyl]oxirane-2-carbonyl}-L-lysine indolinylamide hydrochloride] showed a B/L on cathepsin L of 571. Also, the IC50 on cathepsin L was 70 nM; at cathepsin B, 40000 nM.

For the compound `NCCCC[C@H](NC(=O)[C@H]1O[C@@H]1C(=O)N[C@@H](Cc1ccccc1)C(=O)NCCc1ccccc1)C(=O)N1CCc2ccccc21` [Example 47, Nα-{L-3-trans-[(S)-1-(2-phenylethylcarbamoyl)-2-phenylethylcarbamoyl]oxirane-2-carbonyl}-L-lysine indolinylamide hydrochloride], at cathepsin L, the B/L is 150000 and it took 0.1 nM to reach half-maximal inhibition (IC50). The same compound had an IC50 on cathepsin B of 15000 nM.

In turn, `NCCCC[C@H](NC(=O)[C@H]1O[C@@H]1C(=O)N[C@@H](Cc1ccccc1)C(N)=O)C(=O)Nc1ccc(Cl)c2ccccc12` [Example 48, Nα-{L-3-trans-[(S)-1-carbamoyl-2-phenylethylcarbamoyl]oxirane-2-carbonyl}-L-lysine-1-(4-chloronaphthyl)amide hydrochloride] had a B/L at cathepsin L of 7045. Further, on cathepsin B, the IC50 was 3100 nM.

`NCCCC[C@H](NC(=O)[C@H]1O[C@@H]1C(=O)N[C@@H](Cc1ccccc1)C(=O)NCCc1ccccc1)C(=O)Nc1ccc(Cl)c2ccccc12` [Example 49, Nα-{L-3-trans-[(S)-1-(2-phenylethylcarbamoyl)-2-phenylethylcarbamoyl]oxirane-2-carbonyl}-L-lysine-1-(4-chloronaphthyl)amide hydrochloride] came in with a B/L on cathepsin L of 1176. For the same compound, the IC50 is 1.7 nM on cathepsin L and 2000 nM against cathepsin B.

On cathepsin L, `CCCNC(=O)[C@H](Cc1ccccc1)NC(=O)[C@H]1O[C@@H]1C(=O)N[C@@H](CCCCN)C(=O)Nc1cccc2ccccc12` [Example 51, Nα-{L-3-trans-[(S)-1-propylcarbamoyl-2-phenylethylcarbamoyl]oxirane-2-carbonyl-L-lysine-1-naphthylamide hydrochloride] displayed a B/L greater than 85000 and an IC50 of less than 0.1 nM. This compound also showed an IC50 at cathepsin B of 8500 nM.

On cathepsin L, `NCCCC[C@H](NC(=O)[C@H]1O[C@@H]1C(=O)N[C@H](Cc1ccccc1)C(=O)NCCc1ccccc1)C(=O)Nc1cccc2ccccc12` [Example 53, Nα-{L-3-trans-[(R)-1-(2-phenylethylcarbamoyl)-2-phenylethylcarbamoyl]oxirane-2-carbonyl}-L-lysine-1-naphthylamide hydrochloride] yielded a B/L of 333 and an IC50 of 90 nM. On cathepsin B, this compound came in with an IC50 of 30000 nM.

At cathepsin L, `NCCCC[C@H](NC(=O)[C@H]1O[C@@H]1C(=O)N[C@@H](Cc1ccccc1)C(N)=O)C(=O)Nc1ccccc1` [Example 55, Nα-{L-3-trans-[(S)-1-carbamoyl-2-phenylethylcarbamoyl]oxirane-2-carbonyl}-Nε-L-lysine anilide hydrochloride] showed a B/L of 2444 and an IC50 of 18 nM. The IC50 against cathepsin B was 44000 nM.

On cathepsin L, `NCCCC[C@H](NC(=O)[C@H]1O[C@@H]1C(=O)N[C@@H](Cc1ccccc1)C(=O)Nc1ccccc1)C(=O)Nc1cccc2ccccc12` [Example 57, Nα-{L-3-trans-[(S)-1-phenylcarbamoyl-2-phenylethylcarbamoyl]oxirane-2-carbonyl}-L-lysine-1-naphthylamide hydrochloride] had a B/L greater than 11111 and an IC50 of 9 nM. This compound also gave an IC50 against cathepsin B greater than 10000 nM.

For the compound `CCCNC(=O)[C@H](Cc1ccccc1)NC(=O)[C@H]1O[C@@H]1C(=O)N[C@@H](CCCCN)C(=O)Nc1ccccc1` [Example 59, Nα-{L-3-trans-[(S)-1-propylcarbamoyl-2-phenylethylcarbamoyl]oxirane-2-carbonyl}-L-lysine anilide hydrochloride], the B/L at cathepsin L was greater than 3703. Further, the IC50 at cathepsin L is 2.7 nM; against cathepsin B, greater than 10000 nM.

On cathepsin L, `CC(C)NC(=O)[C@H](Cc1ccccc1)NC(=O)[C@H]1O[C@@H]1C(=O)N[C@@H](CCCCN)C(=O)Nc1ccccc1` [Example 61, Nα-{L-3-trans-[(S)-1-isopropylcarbamoyl-2-phenylethylcarbamoyl]oxirane-2-carbonyl}-L-lysine anilide hydrochloride] came in with a B/L greater than 3571 and an IC50 of 2.8 nM. In addition, at cathepsin B, the IC50 was greater than 10000 nM.

At cathepsin L, `CNC(=O)[C@H](Cc1ccccc1)NC(=O)[C@H]1O[C@@H]1C(=O)N[C@@H](CCCCN)C(=O)Nc1ccccc1` [Example 63, Nα-{L-3-trans-[(S)-1-methylcarbamoyl-2-phenylethylcarbamoyl]oxirane-2-carbonyl}-L-lysine anilide hydrochloride] came in with a B/L of 1923 and an IC50 of 5.2 nM. For the same compound, the IC50 against cathepsin B is greater than 10000 nM.

With `CN(C)C(=O)[C@H](Cc1ccccc1)NC(=O)[C@H]1O[C@@H]1C(=O)N[C@@H](CCCCN)C(=O)Nc1ccccc1` [Example 65, Nα-{L-3-trans-[(S)-1-dimethylcarbamoyl-2-phenylethylcarbamoyl]oxirane-2-carbonyl}-L-lysine anilide hydrochloride], on cathepsin L, the B/L is recorded as greater than 333. The results for the IC50 against cathepsin L and at cathepsin B were 30 nM and greater than 10000 nM, respectively.
